The record followed here is article PMC10409285 (PLOS Pathogens, 2023).

Values joined by “and” are separate entries in the source; they are usually repeats but may differ in a detail not shown here. Equal values may be shown once.

The test deals with DP4.1 (HLA-DPA1*01:03/DPB1*04:01) (Homo sapiens, UniProt P04440+P20036). The experiment in a line: fluorescence polarization competition binding assay, DP4.1.
`CC(C)C[C@H](NC(=O)[C@H](CCCCN)NC(=O)[C@@H](NC(=O)[C@H](CCCCN)NC(=O)[C@H](CC(=O)O)NC(=O)[C@H](Cc1ccccc1)NC(=O)[C@H](CC(C)C)NC(=O)[C@H](CC(C)C)NC(=O)[C@H](CC(=O)O)NC(=O)[C@H](CCC(=O)O)NC(=O)[C@H](Cc1ccccc1)NC(=O)[C@H](Cc1ccccc1)NC(=O)[C@H](CO)NC(=O)[C@H](CCCNC(=N)N)NC(=O)[C@H](CO)NC(=O)[C@H](CO)NC(=O)[C@@H](N)CO)C(C)C)C(=O)O` [HKU1-151] came in with an IC50 of 2.57 µM.

As to `CC(C)C[C@H](NC(=O)CNC(=O)[C@H](CO)NC(=O)[C@@H](NC(=O)[C@@H](NC(=O)[C@@H](NC(=O)[C@H](CCCCN)NC(=O)[C@H](CO)NC(=O)[C@H](Cc1ccccc1)NC(=O)[C@H](CC(C)C)NC(=O)[C@H](CC(C)C)NC(=O)[C@H](CC(=O)O)NC(=O)[C@H](CCC(=O)O)NC(=O)[C@H](CC(C)C)NC(=O)[C@H](C)NC(=O)[C@@H](N)CO)C(C)C)C(C)C)[C@@H](C)O)C(=O)NCC(=O)O` [NL63-146], the half-inhibitory concentration (IC50) amounted to 3.48 µM.

In turn, `CC[C@H](C)[C@H](NC(=O)[C@H](C)NC(=O)[C@H](CO)NC(=O)[C@H](CCCNC(=N)N)NC(=O)CNC(=O)[C@H](C)NC(=O)[C@@H](NC(=O)[C@@H](N)CCCNC(=N)N)C(C)C)C(=O)N[C@@H](CCC(=O)O)C(=O)N[C@@H](CC(=O)O)C(=O)N[C@H](C(=O)N[C@@H](CC(C)C)C(=O)N[C@@H](Cc1ccccc1)C(=O)N[C@@H](CO)C(=O)N[C@@H](CCCCN)C(=O)N[C@@H](CC(C)C)C(=O)N[C@H](C(=O)O)C(C)C)[C@@H](C)CC` [Peptide 229E-115] yielded a half-inhibitory concentration (IC50) of 5.99 µM.

`CC(C)C[C@H](NC(=O)[C@H](CCC(=O)O)NC(=O)[C@H](CC(C)C)NC(=O)[C@H](CCCNC(=N)N)NC(=O)[C@H](CO)NC(=O)CNC(=O)[C@H](Cc1ccccc1)NC(=O)[C@H](Cc1ccccc1)NC(=O)[C@H](Cc1ccccc1)NC(=O)[C@H](C)NC(=O)CN)C(=O)N[C@@H](C)C(=O)N[C@@H](CCCCN)C(=O)N[C@H](C(=O)N[C@@H](CCC(N)=O)C(=O)N[C@@H](CC(N)=O)C(=O)O)C(C)C` [Peptide P2]: the IC50 was determined as 118 µM.

Compound `CC[C@H](C)[C@H](NC(=O)CNC(=O)[C@H](CC(N)=O)NC(=O)[C@@H](NC(=O)[C@H](Cc1ccccc1)NC(=O)[C@H](CC(=O)O)NC(=O)[C@H](CO)NC(=O)[C@@H](N)CC(C)C)[C@@H](C)CC)C(=O)N[C@@H](Cc1ccccc1)C(=O)N[C@@H](C)C(=O)N[C@@H](CCCCN)C(=O)N[C@H](C(=O)N[C@@H](CCCCN)C(=O)N[C@@H](CC(N)=O)C(=O)N[C@H](C(=O)N[C@@H](CCCCN)C(=O)O)[C@@H](C)O)C(C)C` [Peptide P3] had an IC50 of 3.16 µM.

Compound `CC[C@H](C)[C@H](NC(=O)[C@H](C)NC(=O)[C@H](CO)NC(=O)[C@@H](N)CCCNC(=N)N)C(=O)N[C@@H](CCC(=O)O)C(=O)N[C@@H](CC(=O)O)C(=O)N[C@@H](CC(C)C)C(=O)N[C@@H](CC(C)C)C(=O)N[C@@H](Cc1ccccc1)C(=O)N[C@@H](CC(=O)O)C(=O)N[C@@H](CCCCN)C(=O)N[C@H](C(=O)N[C@@H](CCCCN)C(=O)N[C@@H](CC(C)C)C(=O)N[C@@H](CO)C(=O)O)C(C)C` [Peptide P4] yielded an IC50 of 2.99 µM.

On to `CC[C@H](C)[C@H](N)C(=O)N[C@H](C(=O)N[C@H](C(=O)NCC(=O)N[C@@H](Cc1ccc(O)cc1)C(=O)N[C@@H](CCCNC(=N)N)C(=O)N[C@@H](Cc1ccccc1)C(=O)N[C@H](C(=O)N[C@@H](CC(N)=O)C(=O)N[C@@H](Cc1ccccc1)C(=O)N[C@@H](CCC(=O)O)C(=O)N1CCC[C@H]1C(=O)N[C@@H](Cc1ccccc1)C(=O)N[C@H](C(=O)O)[C@@H](C)O)[C@@H](C)O)[C@@H](C)O)[C@@H](C)O` [Peptide P5], for which the IC50 was < 1 µM and 0.3 µM.
